Read-outs that look alike come from different tables or passages of the source.
Key:
[1] = system: cap-dependent translation in Flp-In-293 reporter cells; assay: Cellular cap-dependent translation inhibition assay (dual luciferase assay, DLA; Fluc/Rluc ratio, 24 hours); assay type: cell-based; conditions: dual luciferase assay, Flp-In-293 reporter cells, 24 hours, Fluc/Rluc ratio, read-out: DLA 205 IC50
human eIF4E protein = molecular target: T1, human eIF4E protein (Homo sapiens, UniProt P06730); assay: Biochemical competitive binding assay (TR-FRET competition, EDA-m7GDP-ATTO-647N probe); conditions: read-out: hEIF4E TR-FRET IC50
T1 construct: purchased Novus NBP-45314
T1 sequence (P06730 whole entry): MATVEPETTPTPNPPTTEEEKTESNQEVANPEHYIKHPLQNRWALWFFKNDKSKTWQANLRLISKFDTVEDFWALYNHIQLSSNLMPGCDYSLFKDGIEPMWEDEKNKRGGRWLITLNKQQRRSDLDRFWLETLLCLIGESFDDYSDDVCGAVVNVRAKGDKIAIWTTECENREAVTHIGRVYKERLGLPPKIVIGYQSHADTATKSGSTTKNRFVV
Procedure, shortened: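 IC50 values come from 4-parameter fits of the normalized 665/620 nm TR-FRET ratio. Compound was first incubated 15 min with 4 nM recombinant His-eIF4E bound to 2.5 nM Eu-anti-His antibody, then 15 min with 5 nM m7GDP-ATTO-647N tracer, in pH 7.5 HEPES buffer with 100 mM KCl, Tween-20 and BSA.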

[2] = system: COLO 205 colorectal tumor cells; assay: Tumor cell viability inhibition assay (CellTiter-Glo 2.0, 72 hours); assay type: cell-based; conditions: COLO 205 cell viability
Procedure, shortened: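 IC50 derived by 4-parameter fitting after normalizing luminescence to DMSO and max-inhibition wells. Compounds tested as 11 concentrations in 4-fold steps on COLO 205 cells seeded at 1500 per well in RPMI-1640/10% FBS; ATP content measured with CellTiter-Glo 2.0 after 72 h.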

[3] = system: cyclin D1 protein levels in COLO 205 cells; assay: Cyclin D1 cellular inhibition assay (HTRF, 6 hours); assay type: cell-based; conditions: 6 hours of compound treatment, Cyclin D1 protein levels by HTRF, read-out: COLO 205 6 h Cyclin D1 TR-FRET IC50
Procedure, shortened: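 COLO 205 cells in RPMI-1640 with 10% FBS treated 6 h with 11-point compound dilutions at 1% DMSO final. Lysates assayed for cyclin D1 by HTRF. Signal normalized to DMSO and maximum-inhibition controls, with IC50 from 4-parameter fit.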

SMILES | IC50 (human eIF4E protein) [µM] | IC50 ([2]; Homo sapiens, COLO 205, 72 h) [µM] | IC50 ([3]; Homo sapiens, COLO 205, 6 h) [µM] | IC50 [2] [µM] | IC50 [3] [µM] | IC50 ([1]; Homo sapiens, Flp-In-293, 24 h) [µM] | IC50 [1] [µM]
Cc1cc(-c2cc(Cl)ccc2OCCn2c(C)nc3c(c2=O)CC(N(C)CC2(C)COC2)CC3)c2scc(C(=O)O)c2n1 (stereo not drawn) [Compound 18] | < 0.1 | < 5 | < 5 | – | – | < 1 | –
Cc1cc(-c2cc(Cl)ccc2OCCn2c(C)nc3c(c2=O)CC(N(C)C)CC3)c2scc(C(=O)O)c2n1 (stereo not drawn) [Compound 3, 7-[5-chloranyl-2-[2-[6-[di(methyl)amino]-2-methyl-4-oxidanylidene-5,6,7,8-tetrahydroquinazolin-3-yl]ethoxy]phenyl]-5-methyl-thieno[3,2-b]pyridine-3-carboxylic acid; 2,2,2-tris(fluorenyl)acetic acid] | < 0.1 | < 5 | < 5 | – | – | < 1 | –
Cc1cc(-c2cc(Cl)ccc2OCCn2c(C)nc3c(c2=O)CC(N(CC2CC(F)(F)C2)C2CC2)CC3)c2scc(C(=O)O)c2n1 (single isomer, unassigned) [Compound 263] | < 0.1 | – | – | < 5 | < 5 | – | < 1
Cc1cc(-c2cc(Cl)ccc2OCCn2c(C)nc3c(c2=O)CC(N2CC4COCC4C2)CC3)c2scc(C(=O)O)c2n1 (single isomer, unassigned) [Compound 70] | < 0.1 | – | < 5 | – | – | – | < 1
Cc1cc(-c2cc(Cl)ccc2OCCn2c(C)nc3c(c2=O)C[C@H](N2CC[C@@H](F)C2)CC3)c2scc(C(=O)O)c2n1 (single isomer, unassigned) [Compound 328] | < 0.1 | < 5 | < 5 | – | – | < 1 | –
Cc1cc(-c2cc(Cl)ccc2OCCn2c(C)nc3c(c2=O)CC(N(C)C2CC2)CC3)c2scc(C(=O)NS(C)(=O)=O)c2n1 (stereo not drawn) [Compound 51] | < 0.1 | < 5 | < 5 | – | – | < 1 | –
Cc1cc(-c2cc(Cl)ccc2OCCn2c(C)nc3c(c2=O)CC(N(C)C)CC3)c2scc(C(=O)O)c2n1 (single isomer, unassigned) [Compound 14] | < 0.1 | – | – | 5 to 20 | > 20 | – | 1 to 5
Cc1cc(-c2cc(Cl)ccc2OCCn2c(C)nc3c(c2=O)CC(N2CCCCC2)CC3)c2scc(C(=O)NS(C)(=O)=O)c2n1 (single isomer, unassigned) [Compound 245] | < 0.1 | – | – | 5 to 20 | 5 to 20 | – | < 1
Cc1cc(-c2cc(Cl)ccc2OCCn2c(C)nc3c(c2=O)CC(N2CCCCC2)CC3)c2scc(C(=O)NS(C)(=O)=O)c2n1 (single isomer, unassigned) [Compound 241] | < 0.1 | < 5 | < 5 | – | – | < 1 | –
Cc1cc(-c2cc(Cl)ccc2OCCn2c(C)nc3c(c2=O)CC(N(CC2CC(F)(F)C2)C2CC2)CC3)c2scc(C(=O)NS(C)(=O)=O)c2n1 (single isomer, unassigned) [Compound 260] | < 0.1 | < 5 | < 5 | – | – | < 1 | –
Cc1cc(-c2cc(Cl)ccc2OCCn2c(C)nc3c(c2=O)CC(N(C)C2(C4CCC4)CC2)CC3)c2scc(C(=O)O)c2n1 (single isomer, unassigned) [Compound 243] | < 0.1 | – | – | 5 to 20 | 5 to 20 | – | 1 to 5
Cc1nc2c(c(=O)n1CCOc1ccc(Cl)cc1-c1cccc(C(=O)O)c1)CC(N(C)C)CC2 (stereo not drawn) [Compound 1, 3-[5-chloranyl-2-[2-[6-[di(methyl)amino]-2-methyl-4-oxidanylidene-5,6,7,8-tetrahydroquinazolin-3-yl]ethoxy]phenyl]benzoic acid] | < 0.1 | 5 to 20 | 5 to 20 | – | – | < 1 | –
Cc1cc(-c2cc(Cl)ccc2OCCn2c(C)nc3c(c2=O)CC(N(CC2CC(F)(F)C2)C2CC2)CC3)c2scc(C(=O)NS(C)(=O)=O)c2n1 (single isomer, unassigned) [Compound 261] | < 0.1 | – | – | < 5 | 5 to 20 | – | < 1
Cc1cc(-c2cc(Cl)ccc2OCCn2c(C)nc3c(c2=O)CC(N2CCCCC2)CC3)c2scc(C(=O)O)c2n1 (stereo not drawn) [Compound 11] | < 0.1 | < 5 | < 5 | – | – | < 1 | –
Cc1cc(-c2cc(Cl)ccc2OCCn2c(C)nc3c(c2=O)CC(N(C)C2CC2)CC3)c2scc(C(=O)O)c2n1 (stereo not drawn) [Compound 46] | < 0.1 | < 5 | < 5 | – | – | < 1 | –
Cc1cc(-c2cc(Cl)ccc2OCCn2c(C)nc3c(c2=O)CC(N(C)C)CO3)c2scc(C(=O)O)c2n1 (stereo not drawn) [Compound 230] | < 0.1 | 5 to 20 | 5 to 20 | – | – | – | –
Cc1cc(-c2cc(Cl)ccc2OCCn2c(C)nc3c(c2=O)C[C@H](N2C[C@H]4CCC(F)(F)[C@H]4C2)CC3)c2scc(C(=O)O)c2n1 (single isomer, unassigned) [Compound 166] | < 0.1 | < 5 | < 5 | – | – | – | –
COc1cc(CNC2CCc3nc(C)n(CCOc4ccc(Cl)cc4-c4cc(C)nc5c(C(=O)O)csc45)c(=O)c3C2)ccn1 (stereo not drawn) [Compound 154] | < 0.1 | < 5 | < 5 | – | – | – | –

Second part, led by results:

IC50 (human eIF4E protein) [µM] | IC50 ([2]; Homo sapiens, COLO 205, 72 h) [µM] | IC50 ([3]; Homo sapiens, COLO 205, 6 h) [µM] | IC50 [2] [µM] | IC50 [3] [µM] | SMILES | IC50 ([1]; Homo sapiens, Flp-In-293, 24 h) [µM] | IC50 [1] [µM]
< 0.1 | < 5 | < 5 | – | – | Cc1nc2c(c(=O)n1CC#Cc1ccc(Cl)cc1-c1ccnc3c(C(=O)O)csc13)C[C@H](N1CC[C@@H](F)C1)CC2 (single isomer, unassigned) [Compound 326] | < 1 | –
< 0.1 | 5 to 20 | 5 to 20 | – | – | Cc1cc(-c2cc(Cl)ccc2OCCn2c(C)nc3c(c2=O)CC(N(CC2CC(F)(F)C2)C2CC2)CC3)c2scc(C(=O)O)c2n1 (single isomer, unassigned) [Compound 257] | < 1 | –
< 0.1 | < 5 | < 5 | – | – | Cc1cc(-c2cc(Cl)ccc2OCCn2c(C)nc3c(c2=O)CC(N2CCCCC2)CC3)c2scc(C(=O)NS(C)(=O)=O)c2n1 (stereo not drawn) [Compound 31] | < 1 | –
< 0.1 | < 5 | < 5 | – | – | Cc1cc(-c2cc(Cl)ccc2OCCn2c(C)nc3c(c2=O)CC(N(C)C2(C4CCC4)CC2)CC3)c2scc(C(=O)O)c2n1 (single isomer, unassigned) [Compound 242] | < 1 | –
< 0.1 | < 5 | – | – | < 5 | Cc1cc(-c2cc(Cl)ccc2OCCn2c(C)nc3c(c2=O)CC(N(C)C)CC3)c2scc(C(=O)O)c2n1 (single isomer, unassigned) [Compound 13] | < 1 | –
< 0.1 | < 5 | < 5 | – | – | Cc1cc(-c2cc(Cl)ccc2OCCn2c(C)nc3c(c2=O)CC(N2CCC(C4CC(F)(F)C4)CC2)CC3)c2scc(C(=O)O)c2n1 (stereo not drawn) [Compound 156] | – | –
< 0.1 | < 5 | < 5 | – | – | Cc1cc(-c2cc(Cl)ccc2OCCn2c(C)nc3c(c2=O)CC(N2CCC4(C2)CC(F)(F)C4)CC3)c2scc(C(=O)O)c2n1 (stereo not drawn) [Compound 194] | – | –
< 0.1 | < 5 | < 5 | – | – | CO[C@@H]1CCN([C@@H]2CCc3nc(C)n(CCOc4ccc(Cl)cc4-c4cc(C)nc5c(C(=O)O)csc45)c(=O)c3C2)C1 (single isomer, unassigned) [Compound 42] | < 1 | –
< 0.1 | < 5 | < 5 | – | – | Cc1cc(-c2cc(Cl)ccc2OCCn2c(C)nc3c(c2=O)CC(N(C)Cc2cccc(OC(F)(F)F)c2)CC3)c2scc(C(=O)O)c2n1 (stereo not drawn) [Compound 222] | – | –
0.1 to 0.5 | > 20 | > 20 | – | – | Cc1sc2c(-c3cc(Cl)ccc3OCCn3c(C)nc4c(c3=O)CC(N(C)C3CC3)CC4)cn(C)c(=O)c2c1C(=O)O (single isomer, unassigned) [Compound 244] | > 5 | –
< 0.1 | < 5 | < 5 | – | – | Cc1cc(-c2cc(Cl)ccc2OCCn2c(C)nc3c(c2=O)C[C@@H](N2CCC[C@@]4(C2)CC4(F)F)CC3)c2scc(C(=O)O)c2n1 (single isomer, unassigned) [Compound 141] | – | –
< 0.1 | < 5 | < 5 | – | – | Cc1cc(-c2cc(Cl)ccc2OCCn2c(C)nc3c(c2=O)C[C@H](N2C[C@@H]4CCC(F)(F)[C@@H]4C2)CC3)c2scc(C(=O)O)c2n1 (single isomer, unassigned) [Compound 167] | – | –

From patent publication US20240246918A1, “COMPOUNDS AND COMPOSITIONS AS EIF4E INHIBITORS AND THE USES THEREOF” (Ribometrix, Inc., priority 2022, published 2024)
